Assay results: ChEMBL document CHEMBL4706623, “GPR52 Antagonist Reduces Huntingtin Levels and Ameliorates Huntington's Disease-Related Phenotypes” (J Med Chem, 2021)
Active and inactive are the calls of the source. No cut-off for these calls is given here.

Columns and labels:
[1] = target: C-C chemokine receptor type 5 (Homo sapiens) (UniProt P51681); assay: Antagonist activity at CCR5 (unknown origin) expressed in HEK293 cells assessed as inhibition of […] cAMP accumulation; assay type: functional, cell-based
STHdhQ7/111 = assay: Decrease in wild type HTT level in GPR52 knockdown mouse STHdhQ7/111 cells with at 1 to 10 uM incubated for 48 hrs in presence of 2B7-terbium and 2166-D2 antibodies by TR-FRET analysis; assay type: functional, cell-based; settings: dose 1-10 µM
Mus musculus [2] = assay: Neuroprotective activity in HdhQ140 knock-in mouse model assessed as rescue of mHTT-induced neuronal survival loss at 5 mg/kg, iv QD for 4 weeks by […] based immunostaining based analysis; assay type: functional, organism-based
Mus musculus [3] = assay: Neuroprotective activity in HdhQ140 knock-in mouse model assessed as decrease in staining intensity of microglia in striatum at 0.5 mM, icv QD for 3 weeks by Iba1staining based immunostaining analysis; assay type: functional, organism-based
[4] = target: G-protein coupled receptor 52 (Mus musculus) (UniProt P0C5J4); assay: Antagonist activity at GPR52 in neurons from HdhQ7/Q140 mouse assessed as decrease in wild type HTT levels at 0.1 to 3 uM incubated for 48 hrs in presence of 2B7-terbium and 2166-D2 antibodies by TR-FRET analysis; assay type: tissue-based; settings: Neuron, filed as antagonist, dose 0.1-3 µM
[5] = target: G-protein coupled receptor 52 (Mus musculus) (UniProt P0C5J4); assay: In vivo antagonist activity at GPR52 in wild type mouse model assessed as reduction in mHTT aggregate levels in cortex in presence of 4C9 antibody labelled with D2 fluorophore at 5 mg/kg, iv QD for 4 weeks by TR-FRET analysis; assay type: functional, organism-based
[6] = Cytotoxicity against mouse STHdhQ7/111 cells assessed as cell viability at < 10 uM incubated for 48 hrs by cell titer glo luminescence based assay; settings: sthdhq7/111, 48 h
[7] = target: G-protein coupled receptor 52 (Mus musculus) (UniProt P0C5J4); assay: In vivo antagonist activity at GPR52 in HdhQ140 knock-in mouse model assessed as reduction in mHTT aggregate levels in striatum in presence of 4C9 antibody labelled with terbium at 5 mg/kg, iv QD for 4 weeks by TR-FRET analysis; assay type: functional, organism-based
[8] = target: Beta-2 adrenergic receptor (Homo sapiens) (UniProt P07550); assay: Antagonist activity at beta2 adrenergic receptor (unknown origin) expressed in HEK293 cells assessed as inhibition of isoproterenol-induced cAMP accumulation; assay type: functional, cell-based
[9] = target: G-protein coupled receptor 52 (Mus musculus) (UniProt P0C5J4); assay: In vivo antagonist activity at GPR52 in wild type mouse model assessed as reduction in mHTT aggregate levels in cortex in presence of 4C9 antibody labelled with terbium at 5 mg/kg, iv QD for 4 weeks by TR-FRET analysis; assay type: functional, organism-based
[10] = target: G-protein coupled receptor 52 (Mus musculus) (UniProt P0C5J4); assay: In vivo antagonist activity at GPR52 in HdhQ140 knock-in mouse model assessed as reduction in mHTT levels in striatum at 0.5 mM, icv QD for 3 weeks by TR-FRET analysis; assay type: functional
[11] = target: G-protein coupled receptor 52 (Mus musculus) (UniProt P0C5J4); assay: In vivo antagonist activity at GPR52 in wild type mouse model assessed as reduction in mHTT aggregate levels in striatum in presence of 4C9 antibody labelled with D2 fluorophore at 5 mg/kg, iv QD for 4 weeks by TR-FRET analysis; assay type: functional, organism-based
[12] = target: G-protein coupled receptor 52 (Mus musculus) (UniProt P0C5J4); assay: In vivo antagonist activity at GPR52 in HdhQ140 knock-in mouse model assessed as reduction in mHTT aggregate levels in striatum in presence of 4C9 antibody labelled with D2 fluorophore at 5 mg/kg, iv QD for 4 weeks by TR-FRET analysis; assay type: functional, organism-based
Mus musculus [13] = assay: Neuroprotective activity in HdhQ140 mouse model assessed as latency to fall at 5 mg/kg, iv QD for 4 weeks by rotarod test; assay type: functional, organism-based
[14] = Drug uptake in wild type mouse brain at 5 mg/kg, iv measured 0.5 to 6 hrs; assay type: ADME, organism-based; settings: in vivo, time 0.5-6 hrs, read-out: Drug uptake
Mus musculus [15] = assay: Neuroprotective activity in HdhQ140 knock-in mouse model assessed as decrease in staining intensity of microglia in striatum at 5 mg/kg, iv QD for 4 weeks by Iba1 staining based immunostaining analysis; assay type: functional, organism-based
[16] = target: G-protein coupled receptor 52 (Mus musculus) (UniProt P0C5J4); assay: Antagonist activity at GPR52 in mouse STHdhQ7/111 cells assessed as decrease in wild type HTT levels at 1 to 10 uM incubated for 48 hrs in presence of 2B7-terbium and 2166-D2 antibodies by western blot analysis; assay type: cell-based; settings: filed as antagonist, dose 1-10 µM
[17] = target: G-protein coupled receptor 52 (Mus musculus) (UniProt P0C5J4); assay: In vivo antagonist activity at GPR52 in HdhQ140 knock-in mouse model assessed as reduction in mHTT aggregate levels in cortex in presence of 4C9 antibody labelled with D2 fluorophore at 5 mg/kg, iv QD for 4 weeks by TR-FRET analysis; assay type: functional, organism-based
[18] = target: G-protein coupled receptor 52 (Mus musculus) (UniProt P0C5J4); assay: In vivo antagonist activity at GPR52 in HdhQ140 knock-in mouse model assessed as reduction in mHTT aggregate levels in striatum at 0.5 mM, icv QD for 3 weeks by S380 antibody based immunostaining based analysis; assay type: functional
[19] = target: Glucagon-like peptide 1 receptor (Homo sapiens) (UniProt P43220); assay: Antagonist activity at GLP-1R (unknown origin) expressed in HEK293 cells assessed as inhibition of GLP1-induced cAMP accumulation; assay type: functional, cell-based
[20] = target: G-protein coupled receptor 52 (Mus musculus) (UniProt P0C5J4); assay: Antagonist activity at GPR52 in mouse STHdhQ7/111 cells assessed as decrease in mHTT levels incubated for 48 hrs in presence of 2B7-terbium and 2166-D2 antibodies by TR-FRET; assay type: cell-based; settings: filed as antagonist, dose 0.3-10 µM

Chain of G-protein coupled receptor 52 (Mus musculus) (P0C5J4 whole entry): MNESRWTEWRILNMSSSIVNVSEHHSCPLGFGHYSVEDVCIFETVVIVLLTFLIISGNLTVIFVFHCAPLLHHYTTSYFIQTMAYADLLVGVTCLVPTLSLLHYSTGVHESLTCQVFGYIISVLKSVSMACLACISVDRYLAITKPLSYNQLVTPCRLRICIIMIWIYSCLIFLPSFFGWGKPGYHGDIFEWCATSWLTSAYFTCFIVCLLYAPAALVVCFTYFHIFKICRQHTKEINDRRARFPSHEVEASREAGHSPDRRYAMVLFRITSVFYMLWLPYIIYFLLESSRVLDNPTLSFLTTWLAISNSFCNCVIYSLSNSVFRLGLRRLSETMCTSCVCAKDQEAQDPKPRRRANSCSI
Chain of Glucagon-like peptide 1 receptor (Homo sapiens) (P43220 whole entry): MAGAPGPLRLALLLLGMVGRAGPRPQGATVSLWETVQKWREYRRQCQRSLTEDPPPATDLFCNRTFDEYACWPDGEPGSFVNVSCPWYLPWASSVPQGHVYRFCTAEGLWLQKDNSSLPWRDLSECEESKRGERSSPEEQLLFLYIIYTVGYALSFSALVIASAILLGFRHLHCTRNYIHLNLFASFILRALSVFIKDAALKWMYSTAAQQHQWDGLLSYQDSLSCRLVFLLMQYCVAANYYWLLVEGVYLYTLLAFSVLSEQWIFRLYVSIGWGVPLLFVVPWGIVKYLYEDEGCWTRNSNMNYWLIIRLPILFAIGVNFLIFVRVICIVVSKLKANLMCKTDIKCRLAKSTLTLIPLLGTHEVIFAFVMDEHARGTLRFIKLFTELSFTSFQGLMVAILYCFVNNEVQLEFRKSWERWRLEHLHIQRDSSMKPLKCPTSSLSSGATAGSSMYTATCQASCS
Chain of Beta-2 adrenergic receptor (Homo sapiens) (P07550 whole entry, looked up): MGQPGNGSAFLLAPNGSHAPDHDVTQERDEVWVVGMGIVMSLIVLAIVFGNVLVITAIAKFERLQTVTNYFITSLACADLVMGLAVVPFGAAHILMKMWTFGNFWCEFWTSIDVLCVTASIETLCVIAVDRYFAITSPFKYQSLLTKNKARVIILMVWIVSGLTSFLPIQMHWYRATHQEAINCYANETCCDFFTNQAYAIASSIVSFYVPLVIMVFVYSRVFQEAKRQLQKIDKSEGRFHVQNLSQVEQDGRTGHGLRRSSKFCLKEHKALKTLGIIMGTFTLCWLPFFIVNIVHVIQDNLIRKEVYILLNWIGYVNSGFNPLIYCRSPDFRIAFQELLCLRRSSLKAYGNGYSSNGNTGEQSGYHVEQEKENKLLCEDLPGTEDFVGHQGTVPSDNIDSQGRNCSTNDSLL
Chain of C-C chemokine receptor type 5 (Homo sapiens) (P51681 whole entry, looked up): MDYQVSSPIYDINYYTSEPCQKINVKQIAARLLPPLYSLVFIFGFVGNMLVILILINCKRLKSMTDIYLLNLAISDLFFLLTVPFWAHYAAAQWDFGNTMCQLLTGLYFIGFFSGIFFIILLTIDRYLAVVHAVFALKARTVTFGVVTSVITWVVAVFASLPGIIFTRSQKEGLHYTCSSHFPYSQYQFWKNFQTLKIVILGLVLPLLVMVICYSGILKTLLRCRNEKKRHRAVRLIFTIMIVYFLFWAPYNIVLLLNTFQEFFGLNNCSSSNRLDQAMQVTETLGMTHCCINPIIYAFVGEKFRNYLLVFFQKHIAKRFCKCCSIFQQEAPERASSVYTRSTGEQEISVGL

Activity [1]: inactive
Activity [4]: Active
Activity [5]: inactive
Activity [7]: Active
Activity [8]: inactive
Activity [9]: inactive
Activity [10]: Active
Activity [11]: inactive
Activity [12]: Active
concentration [14]: 20 nM
Activity [16]: Active
Activity [17]: inactive
Activity [18]: Active
Activity [19]: inactive
Activity [20]: Dose-dependent effect
Structure (SMILES): O=C(/C=C/CCc1ccccc1)c1ccco1
Activity (STHdhQ7/111): inactive
Activity (Mus musculus [2]): Active
Activity (Mus musculus [3]): Active
Activity [6]: Non-Toxic
Activity (Mus musculus [13]): Active
Activity (Mus musculus [15]): Active
